The numbers were not newly measured in US20050171131A1, “Diaminopyrimidine derivatives as growth hormone secrectgogue receptor (GHS-R) antagonists” (priority 2003, published 2005), which cites them from elsewhere.

Non-standard residues stand in square brackets, D forms with d. No end group written: not given here.

The mark [1] stands for this setting: repeated administration, ob/ob mice.

Regarding H-H[dW][dK]W[dF]K [[D-Lys-3]-GHRP], the energy intake result (lean mice, mice with diet induced obesity, ob/ob obese mice) is “decrease energy intake”. The “rate of gastric emptying” value (mice) was “reduced the rate of gastric emptying”. For the same substance, under setting [1], the body weight entry is “decreased body weight” and the glycemic control result is “improved glycemic control”.
